Converted amounts (≈) assume the structure as drawn.
How the values were obtained:
[1] = target: Cytochrome P450 2C9 (Homo sapiens, UniProt P11712); experiment: Inhibition of CYP2C9 in human liver microsomes incubated for 10 mins by LC-MS/MS analysis; type: ADME, Microsome
[2] = Cmax in Sprague-Dawley rat at 10 mg/kg, po or 2 mg/kg, iv measured upto 24 hrs by LC-MS/MS analysis; type: ADME, organism-based; set-up: dose 10 mg/kg, time < 24 hrs, route po; conditions: in vivo
[3] = Inhibition of monkey DHODH; set-up: species or system Macaca mulatta
[4] = Inhibition of dog DHODH; set-up: species or system Canis lupus familiaris
[5] = Volume of distribution at steady state in Sprague-Dawley rat at 10 mg/kg, po or 2 mg/kg, iv measured upto 24 hrs by LC-MS/MS analysis; type: ADME, organism-based; conditions: in vivo
[6] = Intrinsic clearance in mouse hepatocytes measured per 10^6 cells; type: ADME, cell-based, Hepatocyte
[7] = target: Cytochrome P450 2C19 (Homo sapiens, UniProt P33261); experiment: Inhibition of CYP2C19 in human liver microsomes incubated for 10 mins by LC-MS/MS analysis; type: ADME, Microsome
[8] = Plasma protein binding in human assessed as free fraction at 1 uM by equilibrium dialysis based LC-MS/MS analysis; type: ADME, cell-free
[9] = Half life in C57BL/6 mouse at 10 mg/kg, po or 2 mg/kg, iv measured upto 24 hrs by LC-MS/MS analysis; type: ADME, organism-based; conditions: in vivo
[10] = Intrinsic clearance in dog hepatocytes measured per 10^6 cells; type: ADME, cell-based, Canis lupus familiaris, Hepatocyte
[11] = Plasma protein binding in rat assessed as free fraction at 1 uM by equilibrium dialysis based LC-MS/MS analysis; type: ADME, cell-free
[12] = target: T1, Dihydroorotate dehydrogenase (quinone), mitochondrial (Homo sapiens, UniProt Q02127)
Description: Binding affinity to His fused human DHODH expressed in Escherichia coli assessed as dissociation half life by surface plasmon resonance assay

[13] = Solubility of compound at pH 7 by HPLC analysis; type: physicochemical; conditions: buffer
[14] = Metabolic stability in mouse liver microsome assessed as intrinsic clearance pretreated for 5 mins followed by NADPH addition and measured upto 60 mins by HPLC-MS/MS analysis; type: ADME; conditions: liver microsomes, time < 65 min, read-out: CLH
[15] = target: T1, Dihydroorotate dehydrogenase (quinone), mitochondrial; experiment: Inhibition of His fused human DHODH expressed in Escherichia coli using DHO as substrate by DCIP absorbance based colorimetry assay
[16] = target: Cytochrome P450 3A4 (Homo sapiens, UniProt P08684); experiment: Inhibition of CYP3A4 in human liver microsomes using midazolam as substrate measured after 5 mins by LC-MS/MS analysis; type: ADME, Microsome
[17] = Metabolic stability in dog liver microsome assessed as intrinsic clearance pretreated for 5 mins followed by NADPH addition and measured upto 60 mins by HPLC-MS/MS analysis; type: ADME, Canis lupus familiaris; conditions: liver microsomes, time < 65 min, read-out: CLH
[18] = AUC(0 to infinity) in Sprague-Dawley rat at 10 mg/kg, po or 2 mg/kg, iv measured upto 24 hrs by LC-MS/MS analysis; type: ADME, organism-based; set-up: dose 10 mg/kg, time < 24 hrs, route po; conditions: in vivo
[19] = Half life in Sprague-Dawley rat at 10 mg/kg, po or 2 mg/kg, iv measured upto 24 hrs by LC-MS/MS analysis; type: ADME, organism-based; conditions: in vivo
[20] = Metabolic stability in rat liver microsome assessed as intrinsic clearance pretreated for 5 mins followed by NADPH addition and measured upto 60 mins by HPLC-MS/MS analysis; type: ADME; conditions: liver microsomes, time < 65 min, read-out: CLH
[21] = Oral bioavailability in C57BL/6 mouse at 10 mg/kg measured upto 24 hrs by LC-MS/MS analysis; type: ADME, organism-based; conditions: in vivo
[22] = Intrinsic clearance in rat hepatocytes measured per 10^6 cells; type: ADME, cell-based, Hepatocyte
[23] = target: Dihydroorotate dehydrogenase (quinone), mitochondrial (Rattus norvegicus, UniProt Q63707); experiment: Inhibition of rat DHODH
[24] = AUC(0 to infinity) in C57BL/6 mouse at 10 mg/kg, po or 2 mg/kg, iv measured upto 24 hrs by LC-MS/MS analysis; type: ADME, organism-based; set-up: time < 24 hrs, dose 10 mg/kg, route po; conditions: in vivo
[25] = Metabolic stability in human liver microsome assessed as intrinsic clearance pretreated for 5 mins followed by NADPH addition and measured upto 60 mins by HPLC-MS/MS analysis; type: ADME; conditions: microsomes, 1.083 h, time < 65 min
[26] = Lipophilicity, logD of compound at pH 7.4; type: physicochemical; conditions: buffer
[27] = Plasma protein binding in mouse assessed as free fraction at 1 uM by equilibrium dialysis based LC-MS/MS analysis; type: ADME, cell-free
[28] = Tmax in Sprague-Dawley rat at 10 mg/kg, po or 2 mg/kg, iv measured upto 24 hrs by LC-MS/MS analysis; type: ADME, organism-based; conditions: in vivo
[29] = Cmax in C57BL/6 mouse at 10 mg/kg, po or 2 mg/kg, iv measured upto 24 hrs by LC-MS/MS analysis; type: ADME, organism-based; set-up: time < 24 hrs, dose 10 mg/kg, route po; conditions: in vivo
[30] = Plasma protein binding in dog assessed as free fraction at 1 uM by equilibrium dialysis based LC-MS/MS analysis; type: ADME, cell-free, Canis lupus familiaris
[31] = Tmax in C57BL/6 mouse at 10 mg/kg, po or 2 mg/kg, iv measured upto 24 hrs by LC-MS/MS analysis; type: ADME, organism-based; conditions: in vivo
[32] = Intrinsic clearance in monkey hepatocytes measured per 10^6 cells; type: ADME, cell-based, Macaca mulatta, Hepatocyte; conditions: rhesus monkey
[33] = target: T2, Cytochrome P450 2C8 (Homo sapiens, UniProt P10632); experiment: Inhibition of CYP2C8 in human liver microsomes incubated for 10 mins by LC-MS/MS analysis; type: ADME, Microsome
T2 sequence (P10632 whole entry): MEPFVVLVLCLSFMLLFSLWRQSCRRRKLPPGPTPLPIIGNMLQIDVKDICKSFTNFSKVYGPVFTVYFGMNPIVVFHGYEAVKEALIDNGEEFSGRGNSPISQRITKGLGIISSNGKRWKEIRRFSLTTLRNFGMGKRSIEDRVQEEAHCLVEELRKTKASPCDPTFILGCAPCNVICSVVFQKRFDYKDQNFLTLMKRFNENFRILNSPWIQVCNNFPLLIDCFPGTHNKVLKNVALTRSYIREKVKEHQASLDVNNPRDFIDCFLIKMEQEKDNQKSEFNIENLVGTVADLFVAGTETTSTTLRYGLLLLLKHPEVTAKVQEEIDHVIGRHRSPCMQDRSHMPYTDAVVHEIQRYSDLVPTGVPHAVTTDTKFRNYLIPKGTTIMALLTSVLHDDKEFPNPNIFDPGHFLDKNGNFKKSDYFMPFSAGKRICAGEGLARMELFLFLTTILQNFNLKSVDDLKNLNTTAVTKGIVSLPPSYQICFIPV

[34] = target: Dihydroorotate dehydrogenase (quinone), mitochondrial (Mus musculus, UniProt O35435); experiment: Inhibition of mouse DHODH
[35] = tested on: THP-1; experiment: Antiproliferative activity against human THP-1 cells assessed as reduction in cell viability measured after 72 hrs; type: functional, cell-based; conditions: THP-1, 72 h
[36] = target: Cytochrome P450 2D6 (Homo sapiens, UniProt P10635); experiment: Inhibition of CYP2D6 in human liver microsomes incubated for 10 mins by LC-MS/MS analysis; type: ADME, Microsome
[37] = Stability in human hepatocytes assessed as intrinsic clearance measured per 10^6 cells incubated upto 120 mins by LC-MS/MS analysis; type: ADME, cell-based, Hepatocyte; conditions: 2 h
[38] = Metabolic stability in monkey liver microsome assessed as intrinsic clearance pretreated for 5 mins followed by NADPH addition and measured upto 60 mins by HPLC-MS/MS analysis; type: ADME, Macaca mulatta; conditions: rhesus monkey, liver microsomes; time < 65 min; read-out: CLH

T1 sequence (Q02127 whole entry): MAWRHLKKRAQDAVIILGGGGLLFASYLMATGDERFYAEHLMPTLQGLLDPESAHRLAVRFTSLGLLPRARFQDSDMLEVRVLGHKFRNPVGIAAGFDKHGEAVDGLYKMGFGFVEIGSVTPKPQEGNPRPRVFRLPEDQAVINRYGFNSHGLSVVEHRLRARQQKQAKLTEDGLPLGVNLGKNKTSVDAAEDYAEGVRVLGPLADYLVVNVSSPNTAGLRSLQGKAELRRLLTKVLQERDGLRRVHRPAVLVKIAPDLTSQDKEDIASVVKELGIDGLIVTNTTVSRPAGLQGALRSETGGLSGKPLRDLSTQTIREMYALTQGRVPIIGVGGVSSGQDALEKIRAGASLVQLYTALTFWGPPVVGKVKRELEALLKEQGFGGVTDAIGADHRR
Sequence of Cytochrome P450 2C19 (P33261 whole entry): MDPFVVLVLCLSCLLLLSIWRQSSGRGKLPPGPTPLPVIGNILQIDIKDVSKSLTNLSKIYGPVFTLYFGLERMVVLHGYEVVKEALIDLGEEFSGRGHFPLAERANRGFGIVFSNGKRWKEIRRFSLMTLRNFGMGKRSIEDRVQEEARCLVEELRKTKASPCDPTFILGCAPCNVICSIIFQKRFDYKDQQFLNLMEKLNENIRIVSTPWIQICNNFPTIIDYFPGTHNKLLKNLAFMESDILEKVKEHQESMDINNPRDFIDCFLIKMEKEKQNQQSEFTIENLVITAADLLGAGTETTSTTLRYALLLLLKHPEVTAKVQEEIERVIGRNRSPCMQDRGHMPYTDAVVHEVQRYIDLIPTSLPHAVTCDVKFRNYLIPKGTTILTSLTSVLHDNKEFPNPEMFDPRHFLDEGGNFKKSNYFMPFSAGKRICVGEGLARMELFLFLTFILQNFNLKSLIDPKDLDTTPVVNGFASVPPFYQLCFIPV
Sequence of Cytochrome P450 2D6 (P10635 whole entry): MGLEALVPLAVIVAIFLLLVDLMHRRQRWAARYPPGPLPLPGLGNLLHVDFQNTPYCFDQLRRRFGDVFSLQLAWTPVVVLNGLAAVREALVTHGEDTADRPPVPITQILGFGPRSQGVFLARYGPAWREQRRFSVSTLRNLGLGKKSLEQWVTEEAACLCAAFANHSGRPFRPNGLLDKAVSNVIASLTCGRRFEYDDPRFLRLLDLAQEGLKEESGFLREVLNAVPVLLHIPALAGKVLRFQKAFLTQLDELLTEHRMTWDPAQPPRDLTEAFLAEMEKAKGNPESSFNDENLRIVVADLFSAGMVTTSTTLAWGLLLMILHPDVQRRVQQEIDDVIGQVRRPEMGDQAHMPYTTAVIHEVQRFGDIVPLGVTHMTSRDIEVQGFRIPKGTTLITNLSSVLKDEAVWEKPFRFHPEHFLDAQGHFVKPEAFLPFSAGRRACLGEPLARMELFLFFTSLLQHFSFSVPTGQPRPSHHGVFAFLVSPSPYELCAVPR
Sequence of Cytochrome P450 2C9 (P11712 whole entry): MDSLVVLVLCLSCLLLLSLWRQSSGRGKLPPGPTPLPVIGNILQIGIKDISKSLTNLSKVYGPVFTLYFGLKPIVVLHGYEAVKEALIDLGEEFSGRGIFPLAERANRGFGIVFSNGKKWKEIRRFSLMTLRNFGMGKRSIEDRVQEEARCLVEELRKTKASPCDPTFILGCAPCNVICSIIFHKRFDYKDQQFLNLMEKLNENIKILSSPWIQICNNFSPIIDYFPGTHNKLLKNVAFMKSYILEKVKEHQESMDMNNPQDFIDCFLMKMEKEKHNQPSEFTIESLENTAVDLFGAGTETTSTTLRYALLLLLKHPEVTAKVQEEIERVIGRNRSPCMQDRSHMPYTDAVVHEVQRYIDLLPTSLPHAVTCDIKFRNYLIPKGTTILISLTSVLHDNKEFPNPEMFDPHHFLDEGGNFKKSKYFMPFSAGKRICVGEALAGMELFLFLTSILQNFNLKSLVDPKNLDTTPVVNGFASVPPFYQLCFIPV
Sequence of Dihydroorotate dehydrogenase (quinone), mitochondrial (Mus musculus, UniProt O35435) (O35435 whole entry): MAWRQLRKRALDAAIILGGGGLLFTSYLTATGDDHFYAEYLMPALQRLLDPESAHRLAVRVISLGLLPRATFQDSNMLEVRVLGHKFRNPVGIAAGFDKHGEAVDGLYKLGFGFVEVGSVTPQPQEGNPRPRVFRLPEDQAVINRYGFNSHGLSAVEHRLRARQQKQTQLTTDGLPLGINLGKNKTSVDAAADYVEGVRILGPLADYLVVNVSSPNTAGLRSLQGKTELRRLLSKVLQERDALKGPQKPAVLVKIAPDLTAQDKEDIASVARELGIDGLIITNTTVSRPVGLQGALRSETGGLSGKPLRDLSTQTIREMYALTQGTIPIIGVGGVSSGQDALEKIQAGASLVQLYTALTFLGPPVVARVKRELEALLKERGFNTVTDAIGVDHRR
Sequence of Cytochrome P450 3A4 (P08684 whole entry): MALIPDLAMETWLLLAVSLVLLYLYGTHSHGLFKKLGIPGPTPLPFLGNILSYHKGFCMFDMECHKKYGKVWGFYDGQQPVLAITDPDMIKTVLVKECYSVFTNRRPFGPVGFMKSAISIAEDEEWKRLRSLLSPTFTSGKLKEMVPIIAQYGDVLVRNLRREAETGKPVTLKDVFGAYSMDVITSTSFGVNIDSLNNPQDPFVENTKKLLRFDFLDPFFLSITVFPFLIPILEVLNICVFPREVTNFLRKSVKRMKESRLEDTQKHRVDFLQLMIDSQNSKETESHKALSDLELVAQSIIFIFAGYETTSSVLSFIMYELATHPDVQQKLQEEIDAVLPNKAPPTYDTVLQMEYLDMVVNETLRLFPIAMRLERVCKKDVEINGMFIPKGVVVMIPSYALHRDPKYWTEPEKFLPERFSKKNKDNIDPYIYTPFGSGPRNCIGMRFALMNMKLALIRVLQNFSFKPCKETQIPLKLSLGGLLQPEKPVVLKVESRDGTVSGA
Sequence of Dihydroorotate dehydrogenase (quinone), mitochondrial (Rattus norvegicus, UniProt Q63707) (Q63707 whole entry): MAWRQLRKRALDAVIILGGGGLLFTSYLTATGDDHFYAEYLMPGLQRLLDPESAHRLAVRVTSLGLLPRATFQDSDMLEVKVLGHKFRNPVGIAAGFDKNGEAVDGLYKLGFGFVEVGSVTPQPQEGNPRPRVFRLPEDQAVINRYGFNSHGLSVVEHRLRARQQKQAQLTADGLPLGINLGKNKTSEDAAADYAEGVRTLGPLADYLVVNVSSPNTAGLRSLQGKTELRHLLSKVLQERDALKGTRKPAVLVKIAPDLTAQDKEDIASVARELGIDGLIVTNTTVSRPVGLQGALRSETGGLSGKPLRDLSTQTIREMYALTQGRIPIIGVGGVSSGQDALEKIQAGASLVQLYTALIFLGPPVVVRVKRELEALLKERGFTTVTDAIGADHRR

Row | IC50 [1] | Cmax [2] | IC50 [3] | IC50 [4] | Vdss [5] | CLH [6] | IC50 [7] | fraction unbound at 1 µM [8] | half-life [9] | CLH [10] | fraction unbound at 1 µM [11] | T1/2 [12] | solubility [13] | CLint scaled [14] | IC50 [15] | IC50 [16] | CLint scaled [17] | AUC(0-inf) [18] | half-life [19] | CLint scaled [20] | SMILES | further results
1 | > 10000 nM | 1710 ng/mL | 1.6 nM | 8.5 nM | 2.3 L/kg | 5.7 µL/min/1e6 cells | > 10000 nM | 0.38 | 2.3 h | 8.3 µL/min/1e6 cells | 0.28 | 0.5 h | > 400 µM | 5.7 mL/min/kg | 1.1 nM | > 10000 nM | 8.3 mL/min/kg | 9210 ng·h/mL | 2 h | 5.2 mL/min/kg | CCn1c(CO)nn(-c2nc(O[C@@H](C)C(F)(F)F)c(C(=O)Nc3c(C)ccnc3Cl)cc2F)c1=O | bioavailability [21]: 103%; CLH [22]: 5.2 µL/min/1e6 cells; IC50 [23]: 1580 nM; AUC(0-inf) [24]: 16100 ng·h/mL; CLH [25]: 8 µL/min/mg; logD [26]: 2.7; fraction unbound at 1 µM [27]: 0.23; Tmax [28]: 1.7 h; Cmax [29]: 4050 ng/mL; fraction unbound at 1 µM [30]: 0.33; Tmax [31]: 0.42 h; CLH [32]: 4 µL/min/1e6 cells; IC50 [33]: > 10000 nM; IC50 [34]: 140 nM; IC50 [35]: 5 nM; IC50 [36]: > 10000 nM; CLH [37]: < 1.9 µL/min/1e6 cells; CLint scaled [38]: 4 mL/min/kg
2 | > 10000 nM | 2190 ng/mL | 0.54 nM | 4.2 nM | 2.2 L/kg | 5.5 µL/min/1e6 cells | > 10000 nM | 0.063 | 5 h | 86 µL/min/1e6 cells | 0.078 | 0.65 h | 5 µM (≈ 2.74 µg/mL) | 5.5 mL/min/kg | 0.3 nM | > 10000 nM | 86 mL/min/kg | 23800 ng·h/mL | 4 h | 6.2 mL/min/kg | CCn1c(CO)nn(-c2nc(O[C@@H](C)C(F)(F)F)c(C(=O)Nc3c(C)cnc(OC)c3Cl)cc2F)c1=O | bioavailability [21]: 110%; CLH [22]: 6.2 µL/min/1e6 cells; IC50 [23]: 130 nM; AUC(0-inf) [24]: 25000 ng·h/mL; CLH [25]: < 7.7 µL/min/mg; logD [26]: 2.4; fraction unbound at 1 µM [27]: 0.062; Tmax [28]: 4 h; Cmax [29]: 3810 ng/mL; fraction unbound at 1 µM [30]: 0.042; Tmax [31]: 1 h; CLH [32]: 5.3 µL/min/1e6 cells; IC50 [33]: > 10000 nM; IC50 [34]: 10 nM; IC50 [35]: 1.4 nM; IC50 [36]: > 10000 nM; CLH [37]: 2.3 µL/min/1e6 cells; CLint scaled [38]: 5.3 mL/min/kg

— ChEMBL document CHEMBL5137081, “N-Heterocyclic 3-Pyridyl Carboxamide Inhibitors of DHODH for the Treatment of Acute Myelogenous Leukemia” (J Med Chem, 2022)
